pIC50: −log10 of the molar value.
These molecules were tested on 786-O (renal cell carcinoma) cells (assay: Cell viability (CellTiter Glo) assay, inhibition of 786-O cell proliferation). Conditions: Homo sapiens, 786-0, 72 h, read-out: IC50, inhibition of 786-O cell proliferation.
Assay type: cell-based

Row | SMILES | pIC50
1 | CC(C)N(CC(F)(F)F)C(=N)OCc1ncc2c(n1)N(c1ccc(Oc3ccccc3)cc1)CCO2 [Compound E125] | 5.30 to 6.30
2 | CC(C)N(CC(F)(F)F)C(=N)OCc1ncc2c(n1)N(c1ccc(OC3CCCCC3)nc1)CCO2 [Compound E126] | 5.30 to 6.30

Same assay, conditions: Homo sapiens, 786-0; 786-O cells, 72 hours, CellTiter Glo; read-out: IC50, inhibition of 786-O cell proliferation

Row | SMILES | pIC50
3 | CNc1nc(COC(=N)N2CCC[C@@H]2C(F)(F)F)nc2c1C(C)(C)C(=O)N2c1ccc2c(c1)CCO2 [Compound E68] | > 7.00
4 | CC1(C)C(=O)N(c2ccc(N3CCC4(CC3)CC4)nc2)c2nc(COC(=N)N3CCC[C@@H]3C(F)(F)F)nc(N)c21 [Compound E70] | > 7.00
5 | CC1(C)C(=O)N(c2ccc(N3CCOCC3)cc2)c2nc(COC(=N)N3CCC[C@@H]3C(F)(F)F)nc(N3CC(F)(F)C3)c21 [Compound E74] | 6.30 to 7.00
6 | CCN(CC)c1ncc(N2C(=O)C3(CCCC3)c3c(NC(C)C)nc(COC(=N)N4CCC[C@@H]4C(F)(F)F)nc32)cn1 [Compound E76] | 6.30 to 7.00
7 | CNc1nc(COC(=N)N2CCC[C@@H]2C(F)(F)F)nc2c1C1(CCCC1)C(=O)N2c1cnc(N2CCOCC2)nc1 [Compound E80] | > 7.00
8 | CNc1nc(COC(=N)N2CCC[C@@H]2C(F)(F)F)nc2c1C1(CCCC1)C(=O)N2c1cnc(N2CCC(F)(F)C2)nc1 [Compound E83] | > 7.00
9 | N=C(OCc1nc(N)c2c(n1)N(c1cnc(N3CCC(F)(F)CC3)nc1)C(=O)C21CCCC1)N1CCC[C@@H]1C(F)(F)F [Compound E84] | > 7.00
10 | CNc1nc(COC(=N)N2CCC[C@@H]2C(F)(F)F)nc2c1C1(CCCC1)C(=O)N2c1cnc(C2=CCOCC2)nc1 [Compound E95] | > 7.00
11 | CNc1nc(COC(=N)N2CCC[C@@H]2C(F)(F)F)nc2c1C(C)(C)CN2c1ccc(N2CCOCC2)cc1OC [Compound E106] | > 7.00
12 | CNc1nc(COC(=N)N2CCC[C@H]2C(F)(F)F)nc2c1C(C)(C)CN2c1ccc(N2CCOCC2)cc1OC [Compound E107] | > 7.00
13 | CNc1nc(COC(=N)N2CCC[C@H]2C(F)(F)F)nc2c1C(C)(C)C(=O)N2c1ccc(N2CCOCC2)cc1 [Compound E108] | > 7.00
14 | N=C(OCc1nc(NC2CC2)c2c(n1)N(c1cnc(N3CCOCC3)nc1)C(=O)C21CCCC1)N1CCC[C@@H]1C(F)(F)F [Compound E111] | > 7.00
15 | CNc1nc(COC(=N)N2CCC[C@@H]2C(F)(F)F)nc2c1C(C)(C)C(=O)N2c1ccc(N2CCOCC2)cc1 [Compound E114] | > 7.00
16 | CNc1nc(COC(=N)N2CC(F)(F)C[C@@H]2C)nc2c1C(C)(C)C(=O)N2c1ccc(N2C[C@@H](C)O[C@@H](C)C2)nc1 [Compound E116] | 6.30 to 7.00
17 | CC1(C)C(=O)N(c2ccc(N3CCOCC3)cc2)c2nc(COC(=N)N3CCC[C@@H]3C(F)(F)F)nc(N)c21 [Compound E117] | > 7.00
18 | N=C(OCc1ncc2c(n1)N(c1cnc(N3CCC(F)(F)CC3)nc1)C(=O)C21CCCC1)N1CCC[C@@H]1C(F)(F)F [Compound E118] | > 7.00
19 | N=C(OCc1ncc(C2CCCO2)c(Nc2ccc(Oc3ccccc3)cc2)n1)N1CCCCC1C(F)(F)F (centres unmarked) [Compound E119] | > 7.00
20 | CC(C)N(CC(F)(F)F)C(=N)OCc1ncc(C2=CCOCC2)c(Nc2ccc(N3CCOCC3)nc2)n1 [Compound E120] | 5.30 to 6.30
21 | CC1(C)CN(c2ccc(Oc3ccccc3)cc2)c2nc(COC(=N)N3CCCC34CCOCC4)ncc21 [Compound E121] | 5.30 to 6.30
22 | CC(C)N(CC(F)(F)F)C(=N)OCc1ncc(C2CCOCC2)c(Nc2ccc(N3CCOCC3)nc2)n1 [Compound E124] | < 5.30
23 | CCC(CC)Oc1ccc(N2CC(C)(C)c3cnc(COC(=N)N(CC(F)(F)F)C(C)C)nc32)nc1 [Compound E128] | 6.30 to 7.00
24 | CC(C)N(CC(F)(F)F)C(=N)OCc1ncc2c(n1)N(c1ccc(OC3CCCC3)nc1)C(=O)C21CC1 [Compound E132] | 6.30 to 7.00
25 | CC(C)Oc1ccc(N2C(=O)C3(CC3)c3cnc(COC(=N)N(CC(F)(F)F)C(C)C)nc32)cn1 [Compound E133] | 5.30 to 6.30
26 | CC(C)N(CC(F)(F)F)C(=N)OCc1ncc2c(n1)N(C1CCC(Oc3ccccn3)CC1)C(=O)C21CC1 (centres unmarked) [Compound E134] | 5.30 to 6.30
27 | CC(C)N(CC(F)(F)F)C(=N)OCc1ncc2c(n1)N(c1ccc(OC3CCCCC3)cn1)CC2(C)C [Compound E135] | 5.30 to 6.30

Results, then the molecule that gave them:

Row | pIC50 | SMILES
28 | > 7.00 | CNc1nc(COC(=N)N2CCC[C@@H]2C(F)(F)F)nc2c1C(C)(C)C(=O)N2c1cnc2c(C(C)C)cnn2c1 [Compound E67]
29 | > 7.00 | CNc1nc(COC(=N)N2CCC[C@@H]2C(F)(F)F)nc2c1C(C)(C)C(=O)N2c1ccc(N2C[C@@H](C)O[C@@H](C)C2)nc1 [Compound E69]
30 | > 7.00 | N=C(OCc1nc(NC2CC2)c2c(n1)N(c1ccc(N3CCOCC3)cc1)C(=O)C21CCCCC1)N1CCC[C@@H]1C(F)(F)F [Compound E71]
31 | > 7.00 | N=C(OCc1ncc2c(n1)N(c1ccc(N3CCOCC3)cc1)C(=O)C21CCCC1)N1CCC[C@@H]1C(F)(F)F [Compound E72]
32 | > 7.00 | N=C(OCc1nc(NC2CC2)c2c(n1)N(c1ccc(N3CCOCC3)c(F)c1)C(=O)C21CCCCC1)N1CCC[C@@H]1C(F)(F)F [Compound E73]
33 | > 7.00 | CCN(CC)c1ncc(N2C(=O)C3(CCCC3)c3c(N)nc(COC(=N)N4CCC[C@@H]4C(F)(F)F)nc32)cn1 [Compound E75]
34 | > 7.00 | COc1cc(N2CCOCC2)ccc1N1CC(C)(C)c2c(N)nc(COC(=N)N3CCC[C@@H]3C(F)(F)F)nc21 [Compound E77]
35 | > 7.00 | N=C(OCc1nc(N)c2c(n1)N(c1cnc(N3CCOCC3)nc1)C(=O)C21CCCC1)N1CCC[C@@H]1C(F)(F)F [Compound E78]
36 | 6.30 to 7.00 | CC(C)Nc1nc(COC(=N)N2CCC[C@@H]2C(F)(F)F)nc2c1C1(CCCC1)C(=O)N2c1cnc(N2CCOCC2)nc1 [Compound E79]
37 | > 7.00 | CC(C)Nc1nc(COC(=N)N2CCC[C@@H]2C(F)(F)F)nc2c1C1(CCCC1)C(=O)N2c1cnc(N2CCC(F)(F)C2)nc1 [Compound E81]
38 | > 7.00 | N=C(OCc1nc(N)c2c(n1)N(c1cnc(N3CCC(F)(F)C3)nc1)C(=O)C21CCCC1)N1CCC[C@@H]1C(F)(F)F [Compound E82]
39 | > 7.00 | N=C(OCc1nc(N)c2c(n1)N(c1cnc(N3CC(F)(F)C3)nc1)C(=O)C21CCCC1)N1CCC[C@@H]1C(F)(F)F [Compound E85]
40 | > 7.00 | CNc1nc(COC(=N)N2CCC[C@@H]2C(F)(F)F)nc2c1C1(CCCC1)C(=O)N2c1cnc(N2CC(F)(F)C2)nc1 [Compound E86]
41 | 5.30 to 6.30 | CC1(C)C(=O)N(c2cnc(C3CCOCC3)nc2)c2nc(COC(=N)N3CCC[C@@H]3C(F)(F)F)nc(NC3CCC3)c21 [Compound E89]
42 | 6.30 to 7.00 | N=C(OCc1nc(N)c2c(n1)N(c1cnc(C(F)(F)F)nc1)C(=O)C21CCCC1)N1CCC[C@@H]1C(F)(F)F [Compound E90]
43 | > 7.00 | N=C(OCc1nc(NC2CCC2)c2c(n1)N(c1ccc(N3CCOCC3)cc1)C(=O)C21CCCC1)N1CCC[C@@H]1C(F)(F)F [Compound E91]

Row | pIC50 | SMILES
44 | 6.30 to 7.00 | C[C@@H]1CN(c2ncc(N3C(=O)C4(CCCC4)c4c(NC5CCC5)nc(COC(=N)N5CCC[C@@H]5C(F)(F)F)nc43)cn2)C[C@H](C)O1 [Compound E92, [4′-(cyclobutylamino)-7′-{2-[(2R,6S)-2,6-dimethylmorpholin-4-yl]pyrimidin-5-yl}-6′-oxo-6′,7′-dihydrospiro[cyclopentane-1,5′-pyrrolo[2,3-d]pyrimidin]-2′-yl]methyl (2R)-2-(trifluoromethyl)pyrrolidine-1-carboximidate]
45 | 6.30 to 7.00 | CNc1nc(COC(=N)N2CCC[C@@H]2C(F)(F)F)nc2c1C1(CCCC1)C(=O)N2c1cnc(N2CC3CC2CO3)nc1 (stereo partly drawn) [Compound E96, (7′-(2-(2-oxa-5-azabicyclo[2.2.1]heptan-5-yl)pyrimidin-5-yl)-4′-(methylamino)-6′-oxo-6′,7′-dihydrospiro[cyclopentane-1,5′-pyrrolo[2,3-d]pyrimidin]-2′-yl)methyl (2R)-2-(trifluoromethyl)pyrrolidine-1-carbimidate]
46 | 5.30 to 6.30 | N=C(OCc1nc(N)c2c(n1)N(c1cnc(N3CC4CC3CO4)nc1)C(=O)C21CCCC1)N1CCC[C@@H]1C(F)(F)F (some centres unmarked) [Compound E98]
47 | 5.30 to 6.30 | CC1(C)CC(c2ncc(N3C(=O)C4(CCCC4)c4c(N)nc(COC(=N)N5CCOCC5C(F)(F)F)nc43)cn2)CC(C)(C)O1 (centres unmarked) [Compound E101]
48 | 6.30 to 7.00 | CNc1nc(COC(=N)N2CCC[C@@H]2C(F)(F)F)nc2c1C1(CCCC1)C(=O)N2c1cnc(C2CC(C)(C)OC(C)(C)C2)nc1 [Compound E102]
49 | 6.30 to 7.00 | C[C@@H]1CN(c2ncc(N3C(=O)C4(CCCC4)c4c(N)nc(COC(=N)N5CCOC[C@H]5C(F)(F)F)nc43)cn2)C[C@H](C)O1 [Compound E104A]
50 | > 7.00 | C[C@@H]1CN(c2ncc(N3C(=O)C4(CCCC4)c4c(N)nc(COC(=N)N5CCOC[C@@H]5C(F)(F)F)nc43)cn2)C[C@H](C)O1 [Compound E104B]
51 | > 7.00 | C[C@@H]1CN(c2ncc(N3C(=O)C(C)(C)c4c(N)nc(COC(=N)N5CCC[C@@H]5C(F)(F)F)nc43)cn2)C[C@H](C)O1 [Compound E105]
52 | > 7.00 | CCN(CC(F)(F)F)C(=N)OCc1nc(NC)c2c(n1)N(c1ccc(N3CCOCC3)cc1)C(=O)C2(C)C [Compound E109]
53 | > 7.00 | N=C(OCc1nc(NC2CC2)c2c(n1)N(c1cnc(N3CCC(F)(F)CC3)nc1)C(=O)C21CCCC1)N1CCC[C@@H]1C(F)(F)F [Compound E112]
54 | > 7.00 | CNc1nc(COC(=N)N2CCCC2C(F)(F)F)nc2c1C(C)(C)C(=O)N2c1ccc(N2C[C@@H](C)O[C@@H](C)C2)nc1 (some centres unmarked) [Compound E113]
55 | 6.30 to 7.00 | CNc1nc(COC(=N)N2CC(F)(F)C[C@H]2C)nc2c1C(C)(C)C(=O)N2c1ccc(N2C[C@@H](C)O[C@@H](C)C2)nc1 [Compound E115]
56 | 5.30 to 6.30 | N=C(OCc1nc(N)nc(Nc2ccc(Oc3ccccc3)cc2)n1)N1CCCC12CCOCC2 [Compound E122]
57 | 6.30 to 7.00 | CC(C)N(CC(F)(F)F)C(=N)OCc1ncc2c(n1)N(c1ccc(OC3CCCCC3)nc1)CC2(C)C [Compound E127]
58 | 6.30 to 7.00 | CC(C)N(CC(F)(F)F)C(=N)OCc1ncc2c(n1)N(c1ccc(N3CCOCC3)nc1)CC2(C)C [Compound E129]
59 | 6.30 to 7.00 | CC(C)Oc1cnc(COC(=N)N(CC(F)(F)F)C(C)C)nc1Nc1ccc(Oc2ccccc2)cc1 [Compound E131]
